Data: ChEMBL document CHEMBL3991601, “The target landscape of clinical kinase drugs” (Science, 2017)
Activity calls are given as the source filed them.

How the values were obtained:
[1] = molecular target: Phosphatidylethanolamine-binding protein 1 (Homo sapiens, UniProt P30086)
[2] = molecular target: G protein-coupled receptor kinase 6 (Homo sapiens, UniProt P43250)
[3] = molecular target: T1, Long-chain-fatty-acid--CoA ligase 5 (Homo sapiens, UniProt Q9ULC5)
T1 sequence (Q9ULC5 whole entry): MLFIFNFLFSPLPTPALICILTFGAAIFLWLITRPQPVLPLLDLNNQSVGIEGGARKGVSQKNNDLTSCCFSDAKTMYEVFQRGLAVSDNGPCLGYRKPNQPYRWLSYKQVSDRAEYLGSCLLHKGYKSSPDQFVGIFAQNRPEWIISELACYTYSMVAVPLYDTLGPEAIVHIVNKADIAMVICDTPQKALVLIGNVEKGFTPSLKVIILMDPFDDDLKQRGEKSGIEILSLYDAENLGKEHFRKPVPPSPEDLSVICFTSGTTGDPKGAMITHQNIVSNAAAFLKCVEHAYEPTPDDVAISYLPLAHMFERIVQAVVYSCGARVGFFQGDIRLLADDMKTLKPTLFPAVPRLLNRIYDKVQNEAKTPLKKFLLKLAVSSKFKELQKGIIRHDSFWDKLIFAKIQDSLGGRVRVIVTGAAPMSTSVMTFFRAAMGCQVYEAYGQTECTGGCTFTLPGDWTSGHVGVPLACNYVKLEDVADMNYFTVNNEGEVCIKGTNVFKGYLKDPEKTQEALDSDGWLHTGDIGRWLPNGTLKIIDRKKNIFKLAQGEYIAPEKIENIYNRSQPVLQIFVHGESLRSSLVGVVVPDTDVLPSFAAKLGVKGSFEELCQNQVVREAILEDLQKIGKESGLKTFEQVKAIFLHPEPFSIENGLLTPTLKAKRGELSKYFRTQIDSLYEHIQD

[4] = molecular target: PAS domain-containing serine/threonine-protein kinase (Homo sapiens, UniProt Q96RG2)
[5] = molecular target: Dual specificity testis-specific protein kinase 2 (Homo sapiens, UniProt Q96S53)
Ephrin type-A receptor 1 = molecular target: T2, Ephrin type-A receptor 1 (Homo sapiens, UniProt P21709)
T2 sequence (P21709 whole entry): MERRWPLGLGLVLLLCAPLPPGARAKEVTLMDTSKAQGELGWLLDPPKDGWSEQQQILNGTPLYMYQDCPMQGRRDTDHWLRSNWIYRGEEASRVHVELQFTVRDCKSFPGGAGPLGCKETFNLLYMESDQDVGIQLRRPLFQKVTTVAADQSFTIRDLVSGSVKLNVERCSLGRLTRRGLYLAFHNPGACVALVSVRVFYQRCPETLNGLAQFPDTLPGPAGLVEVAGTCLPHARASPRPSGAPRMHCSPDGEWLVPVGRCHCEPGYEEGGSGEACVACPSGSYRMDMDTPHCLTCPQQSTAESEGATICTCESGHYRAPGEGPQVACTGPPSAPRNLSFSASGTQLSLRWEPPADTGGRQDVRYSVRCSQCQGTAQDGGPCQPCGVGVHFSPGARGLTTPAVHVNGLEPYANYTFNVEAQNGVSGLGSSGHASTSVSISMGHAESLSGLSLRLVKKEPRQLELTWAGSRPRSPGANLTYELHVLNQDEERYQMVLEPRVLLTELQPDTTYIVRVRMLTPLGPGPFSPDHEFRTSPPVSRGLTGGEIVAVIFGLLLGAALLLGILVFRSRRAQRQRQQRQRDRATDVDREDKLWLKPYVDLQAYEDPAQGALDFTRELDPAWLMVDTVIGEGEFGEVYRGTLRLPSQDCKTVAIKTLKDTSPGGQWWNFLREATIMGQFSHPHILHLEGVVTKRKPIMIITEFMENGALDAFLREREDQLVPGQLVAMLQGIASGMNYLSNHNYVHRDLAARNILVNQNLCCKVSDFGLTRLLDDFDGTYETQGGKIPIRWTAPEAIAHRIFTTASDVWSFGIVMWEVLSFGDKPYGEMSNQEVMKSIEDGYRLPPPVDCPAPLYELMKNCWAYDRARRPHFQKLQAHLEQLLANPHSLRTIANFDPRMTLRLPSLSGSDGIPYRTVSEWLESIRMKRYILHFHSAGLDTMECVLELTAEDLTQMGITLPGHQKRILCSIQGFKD

[6] = molecular target: T3, ATP-dependent RNA helicase DHX30 (Homo sapiens, UniProt Q7L2E3)
T3 sequence (Q7L2E3 whole entry): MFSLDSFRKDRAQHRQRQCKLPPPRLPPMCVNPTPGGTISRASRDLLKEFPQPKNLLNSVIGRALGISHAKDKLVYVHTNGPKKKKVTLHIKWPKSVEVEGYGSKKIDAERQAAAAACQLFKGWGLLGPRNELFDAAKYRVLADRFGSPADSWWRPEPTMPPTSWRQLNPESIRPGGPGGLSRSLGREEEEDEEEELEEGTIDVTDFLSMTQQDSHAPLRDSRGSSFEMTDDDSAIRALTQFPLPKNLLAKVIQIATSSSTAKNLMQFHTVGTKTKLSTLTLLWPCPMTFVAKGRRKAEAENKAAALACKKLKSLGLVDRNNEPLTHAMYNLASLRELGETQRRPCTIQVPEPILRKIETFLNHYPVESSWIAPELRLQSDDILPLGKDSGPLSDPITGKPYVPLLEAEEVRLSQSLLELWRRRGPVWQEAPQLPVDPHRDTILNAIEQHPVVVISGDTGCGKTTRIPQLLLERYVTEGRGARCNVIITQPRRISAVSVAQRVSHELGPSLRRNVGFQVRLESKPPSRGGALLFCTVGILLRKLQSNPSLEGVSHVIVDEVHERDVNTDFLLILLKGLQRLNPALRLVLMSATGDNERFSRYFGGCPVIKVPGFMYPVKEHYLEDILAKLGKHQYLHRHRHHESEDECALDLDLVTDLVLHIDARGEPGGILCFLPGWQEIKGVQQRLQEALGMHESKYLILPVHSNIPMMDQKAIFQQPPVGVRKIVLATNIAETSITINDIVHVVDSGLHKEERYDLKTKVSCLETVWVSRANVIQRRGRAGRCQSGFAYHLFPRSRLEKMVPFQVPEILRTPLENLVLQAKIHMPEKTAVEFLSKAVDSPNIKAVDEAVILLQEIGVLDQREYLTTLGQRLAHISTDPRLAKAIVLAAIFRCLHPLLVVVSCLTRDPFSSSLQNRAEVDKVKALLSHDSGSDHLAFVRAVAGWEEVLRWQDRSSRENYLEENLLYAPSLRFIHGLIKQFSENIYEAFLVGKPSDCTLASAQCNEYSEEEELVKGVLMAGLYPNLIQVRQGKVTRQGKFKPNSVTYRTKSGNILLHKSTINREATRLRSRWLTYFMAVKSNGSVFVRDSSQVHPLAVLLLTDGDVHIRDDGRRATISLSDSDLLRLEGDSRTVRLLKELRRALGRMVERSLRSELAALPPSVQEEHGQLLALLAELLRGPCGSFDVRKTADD
Also: in the data inactive means no Kd found up to 30 µM.

Sequence of Phosphatidylethanolamine-binding protein 1 (P30086 whole entry): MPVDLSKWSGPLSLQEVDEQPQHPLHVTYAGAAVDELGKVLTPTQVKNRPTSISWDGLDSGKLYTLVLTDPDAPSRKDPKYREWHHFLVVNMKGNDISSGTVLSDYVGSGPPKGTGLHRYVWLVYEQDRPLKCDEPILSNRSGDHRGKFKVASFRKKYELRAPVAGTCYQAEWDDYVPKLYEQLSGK
Sequence of PAS domain-containing serine/threonine-protein kinase (Q96RG2 whole entry, the tested form may be a part): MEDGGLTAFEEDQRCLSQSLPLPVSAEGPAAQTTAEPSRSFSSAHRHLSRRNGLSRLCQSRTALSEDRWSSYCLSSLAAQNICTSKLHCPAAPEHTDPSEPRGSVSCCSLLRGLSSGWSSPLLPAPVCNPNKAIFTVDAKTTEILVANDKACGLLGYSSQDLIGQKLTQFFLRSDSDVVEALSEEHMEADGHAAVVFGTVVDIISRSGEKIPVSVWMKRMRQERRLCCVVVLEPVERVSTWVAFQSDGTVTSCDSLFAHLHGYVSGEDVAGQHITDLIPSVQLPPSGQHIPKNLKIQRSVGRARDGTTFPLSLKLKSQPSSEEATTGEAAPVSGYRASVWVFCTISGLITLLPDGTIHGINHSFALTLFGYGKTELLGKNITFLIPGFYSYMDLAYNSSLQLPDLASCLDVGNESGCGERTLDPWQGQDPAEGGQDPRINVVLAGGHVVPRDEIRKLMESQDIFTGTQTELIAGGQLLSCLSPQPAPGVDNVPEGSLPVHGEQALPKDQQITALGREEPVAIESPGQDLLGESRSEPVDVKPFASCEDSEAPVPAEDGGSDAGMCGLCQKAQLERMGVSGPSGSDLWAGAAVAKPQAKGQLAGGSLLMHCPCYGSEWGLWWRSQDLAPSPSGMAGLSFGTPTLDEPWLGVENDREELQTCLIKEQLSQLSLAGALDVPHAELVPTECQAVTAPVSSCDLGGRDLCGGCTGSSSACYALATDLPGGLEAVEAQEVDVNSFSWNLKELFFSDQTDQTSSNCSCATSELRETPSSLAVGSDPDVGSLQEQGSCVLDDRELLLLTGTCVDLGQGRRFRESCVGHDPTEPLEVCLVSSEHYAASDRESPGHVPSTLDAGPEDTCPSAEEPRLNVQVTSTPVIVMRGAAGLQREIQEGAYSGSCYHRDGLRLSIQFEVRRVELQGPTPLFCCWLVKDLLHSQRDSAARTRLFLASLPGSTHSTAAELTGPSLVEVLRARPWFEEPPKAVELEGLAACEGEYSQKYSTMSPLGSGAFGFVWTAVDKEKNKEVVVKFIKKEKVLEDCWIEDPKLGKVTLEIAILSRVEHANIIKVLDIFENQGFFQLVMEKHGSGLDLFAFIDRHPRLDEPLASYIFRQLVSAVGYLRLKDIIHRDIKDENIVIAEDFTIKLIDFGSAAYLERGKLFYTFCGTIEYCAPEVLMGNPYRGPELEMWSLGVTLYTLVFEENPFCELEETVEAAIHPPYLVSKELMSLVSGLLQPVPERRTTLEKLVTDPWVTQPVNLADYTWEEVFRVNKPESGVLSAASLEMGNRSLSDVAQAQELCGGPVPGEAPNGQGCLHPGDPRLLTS
Sequence of Dual specificity testis-specific protein kinase 2 (Q96S53 whole entry): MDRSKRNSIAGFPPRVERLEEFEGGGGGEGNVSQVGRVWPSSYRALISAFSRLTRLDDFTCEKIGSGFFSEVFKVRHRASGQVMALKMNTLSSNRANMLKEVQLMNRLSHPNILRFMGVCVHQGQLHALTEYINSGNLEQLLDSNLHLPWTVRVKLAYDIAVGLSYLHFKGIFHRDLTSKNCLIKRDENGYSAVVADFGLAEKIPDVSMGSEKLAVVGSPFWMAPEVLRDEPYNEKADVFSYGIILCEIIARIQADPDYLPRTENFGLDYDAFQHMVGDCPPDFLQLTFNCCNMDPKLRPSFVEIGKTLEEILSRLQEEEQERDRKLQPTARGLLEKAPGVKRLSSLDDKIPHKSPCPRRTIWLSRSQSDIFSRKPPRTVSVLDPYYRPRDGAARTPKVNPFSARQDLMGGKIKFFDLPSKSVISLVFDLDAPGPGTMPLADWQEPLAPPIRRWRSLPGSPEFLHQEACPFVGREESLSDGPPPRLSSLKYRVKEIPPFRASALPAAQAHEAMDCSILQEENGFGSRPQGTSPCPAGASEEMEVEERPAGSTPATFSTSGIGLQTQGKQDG
Sequence of G protein-coupled receptor kinase 6 (P43250 whole entry): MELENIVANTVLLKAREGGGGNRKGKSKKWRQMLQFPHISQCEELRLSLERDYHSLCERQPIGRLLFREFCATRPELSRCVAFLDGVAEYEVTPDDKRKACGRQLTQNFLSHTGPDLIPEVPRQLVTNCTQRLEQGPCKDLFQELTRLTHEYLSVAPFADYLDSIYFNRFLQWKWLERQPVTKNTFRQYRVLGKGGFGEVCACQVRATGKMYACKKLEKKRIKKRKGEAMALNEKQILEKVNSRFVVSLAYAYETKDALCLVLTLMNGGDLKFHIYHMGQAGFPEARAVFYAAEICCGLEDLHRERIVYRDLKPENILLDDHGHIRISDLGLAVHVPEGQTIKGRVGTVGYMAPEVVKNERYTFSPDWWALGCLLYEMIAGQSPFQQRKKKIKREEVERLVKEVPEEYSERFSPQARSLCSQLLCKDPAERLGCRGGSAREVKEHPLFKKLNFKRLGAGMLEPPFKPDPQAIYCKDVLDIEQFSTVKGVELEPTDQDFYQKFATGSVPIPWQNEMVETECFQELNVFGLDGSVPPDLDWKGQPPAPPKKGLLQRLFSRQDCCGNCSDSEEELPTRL

CCc1cnn2c(NCc3ccc[n+]([O-])c3)cc(N3CCCC[C@H]3CCO)nc12 [DINACICLIB]
Kd [1]: > 30 µM (inactive) | Kd [2]: > 30 µM (inactive) | Kd [3]: > 30 µM (inactive) | Kd [4]: > 30 µM (inactive) | Kd [5]: > 30 µM (inactive) | Kd (Ephrin type-A receptor 1): > 30 µM (inactive)

CN(C)C(=O)c1cc2cnc(Nc3ccc(N4CCNCC4)cn3)nc2n1C1CCCC1 [RIBOCICLIB]
Kd [1]: > 30 µM (inactive) | Kd [6]: > 30 µM (inactive) | Kd [2]: > 30 µM (inactive) | Kd [4]: > 30 µM (inactive) | Kd [5]: > 30 µM (inactive) | Kd (Ephrin type-A receptor 1): > 30 µM (inactive)

O=C1NC(=O)/C(=C/c2ccc3nccc(-c4ccncc4)c3c2)S1 [GSK-1059615]
Kd [6]: > 30 µM (inactive) | Kd [2]: > 30 µM (inactive) | Kd [5]: > 30 µM (inactive) | Kd (Ephrin type-A receptor 1): > 30 µM (inactive)

CC(=O)Nc1cccc(-n2c(=O)n(C3CC3)c(=O)c3c(Nc4ccc(I)cc4F)n(C)c(=O)c(C)c32)c1 [TRAMETINIB]
Kd [1]: > 30 µM (inactive) | Kd [6]: > 30 µM (inactive) | Kd [2]: > 30 µM (inactive) | Kd [4]: > 30 µM (inactive) | Kd [5]: > 30 µM (inactive) | Kd (Ephrin type-A receptor 1): > 30 µM (inactive)

CN1CCN(c2ccc3nc(-c4c(N)c5c(F)cccc5[nH]c4=O)[nH]c3c2)CC1 [DOVITINIB]
Kd [6]: > 30 µM (inactive) | Kd [2]: > 30 µM (inactive) | Kd [4]: > 30 µM (inactive) | Kd [5]: > 30 µM (inactive)

COC(=O)N[C@@H](C)CNc1nccc(-c2cn(C(C)C)nc2-c2cc(Cl)cc(NS(C)(=O)=O)c2F)n1 [ENCORAFENIB]
Kd [1]: > 30 µM (inactive) | Kd [6]: > 30 µM (inactive) | Kd [2]: > 30 µM (inactive) | Kd [4]: > 30 µM (inactive) | Kd [5]: > 30 µM (inactive) | Kd (Ephrin type-A receptor 1): > 30 µM (inactive)

Cc1ccc(NC(=O)c2ccc(CN3CC[C@H](N(C)C)C3)c(C(F)(F)F)c2)cc1Nc1nccc(-c2cncnc2)n1 [BAFETINIB]
Kd [1]: > 30 µM (inactive) | Kd [2]: > 30 µM (inactive) | Kd [3]: > 30 µM (inactive) | Kd [4]: > 30 µM (inactive) | Kd [5]: > 30 µM (inactive) | Kd (Ephrin type-A receptor 1): > 30 µM (inactive)

COc1ccc(-c2ccc3c(N4CCOC[C@@H]4C)nc(N4CCOC[C@@H]4C)nc3n2)cc1CO [AZD-8055]
Kd [1]: > 30 µM (inactive) | Kd [6]: > 30 µM (inactive) | Kd [2]: > 30 µM (inactive) | Kd [4]: > 30 µM (inactive) | Kd [5]: > 30 µM (inactive) | Kd (Ephrin type-A receptor 1): > 30 µM (inactive)

Cn1cc(-c2ccc(F)c(C(F)(F)F)c2)nc1C1CCN(c2ncnc3[nH]ncc23)CC1 [LY-2584702]
Kd [1]: > 30 µM (inactive) | Kd [3]: > 30 µM (inactive) | Kd [5]: > 30 µM (inactive) | Kd (Ephrin type-A receptor 1): > 30 µM (inactive)

CNC(=O)CN1CCC(Oc2cc3c(Nc4cccc(Cl)c4F)ncnc3cc2OC)CC1 [SAPITINIB]
Kd [2]: > 30 µM (inactive) | Kd [3]: > 30 µM (inactive) | Kd [4]: > 30 µM (inactive) | Kd [5]: > 30 µM (inactive) | Kd (Ephrin type-A receptor 1): 0.015 µM

COc1cc(OC)c(/C=C/S(=O)(=O)Cc2ccc(OC)c(NCC(=O)O)c2)c(OC)c1 [RIGOSERTIB]
Kd [6]: > 30 µM (inactive) | Kd [2]: > 30 µM (inactive) | Kd [4]: > 30 µM (inactive) | Kd [5]: > 30 µM (inactive) | Kd (Ephrin type-A receptor 1): > 30 µM (inactive)

COc1cc2nccc(Oc3ccc(NC(=O)Nc4cc(C)on4)c(Cl)c3)c2cc1OC [TIVOZANIB]
Kd [1]: 0.003 µM | Kd [2]: > 30 µM (inactive) | Kd [3]: > 30 µM (inactive) | Kd [4]: > 30 µM (inactive) | Kd [5]: > 30 µM (inactive) | Kd (Ephrin type-A receptor 1): > 30 µM (inactive)

C[C@@H](c1ccc2nccn2c1)n1nnc2ncc(-c3cnn(C)c3)nc21 [SAVOLITINIB]
Kd [1]: > 30 µM (inactive) | Kd [3]: > 30 µM (inactive) | Kd [5]: > 30 µM (inactive)

Cc1cn(-c2cc(NC(=O)c3ccc(C)c(Nc4nccc(-c5cccnc5)n4)c3)cc(C(F)(F)F)c2)cn1 [NILOTINIB]
Kd [1]: > 30 µM (inactive) | Kd [6]: > 30 µM (inactive) | Kd [2]: > 30 µM (inactive) | Kd [4]: > 30 µM (inactive) | Kd [5]: > 30 µM (inactive)

Nc1nc(N)c2nc(-c3cccc(O)c3)c(-c3cccc(O)c3)nc2n1 [TG100-115]
Kd [6]: > 30 µM (inactive) | Kd [2]: > 30 µM (inactive) | Kd [3]: > 30 µM (inactive) | Kd [5]: > 30 µM (inactive)

COC(=O)[C@@]1(O)C[C@H]2O[C@]1(C)n1c3ccccc3c3c4c(c5c6ccccc6n2c5c31)C(=O)NC4 [K-252A]
Kd [6]: > 30 µM (inactive) | Kd [3]: > 30 µM (inactive) | Kd [5]: > 30 µM (inactive) | Kd (Ephrin type-A receptor 1): > 30 µM (inactive)

Cc1cc(-c2cc(O)ccc2Cl)cc2nnc(Nc3ccc(OCCN4CCCC4)cc3)nc12
Kd [6]: > 30 µM (inactive) | Kd [3]: > 30 µM (inactive) | Kd [4]: > 30 µM (inactive) | Kd [5]: > 30 µM (inactive) | Kd (Ephrin type-A receptor 1): > 30 µM (inactive)

O=C(c1ccc(F)c(F)c1Nc1ccc(I)cc1F)N1CC(O)([C@@H]2CCCCN2)C1 [COBIMETINIB]
Kd [1]: > 30 µM (inactive) | Kd [6]: > 30 µM (inactive) | Kd [3]: > 30 µM (inactive) | Kd [5]: > 30 µM (inactive) | Kd (Ephrin type-A receptor 1): > 30 µM (inactive)

CN1CCC(CNc2ccc3ncc(-c4cccc(OC(F)(F)F)c4)n3n2)CC1 [SGI-1776]
Kd [2]: > 30 µM (inactive) | Kd [3]: > 30 µM (inactive) | Kd [4]: > 30 µM (inactive) | Kd [5]: > 30 µM (inactive) | Kd (Ephrin type-A receptor 1): > 30 µM (inactive)

CCCS(=O)(=O)Nc1ccc(F)c(C(=O)c2c[nH]c3ncc(-c4ccc(Cl)cc4)cc23)c1F [VEMURAFENIB]
Kd [1]: > 30 µM (inactive) | Kd [2]: > 30 µM (inactive) | Kd [3]: > 30 µM (inactive) | Kd [5]: > 30 µM (inactive) | Kd (Ephrin type-A receptor 1): > 30 µM (inactive)

C=CC(=O)N1CCC(Oc2cc3c(Nc4ccc(Cl)c(Cl)c4F)ncnc3cc2OC)CC1 [POZIOTINIB]
Kd [6]: > 30 µM (inactive) | Kd [2]: > 30 µM (inactive) | Kd [5]: > 30 µM (inactive)
